Experimental data reported in article PMC12426935, “On-Cell Saturation Transfer Difference NMR Spectroscopy on Ion Channels: Characterizing Negative Allosteric Modulator Binding Interactions of P2X7” (Journal of the American Chemical Society, 2025).
Like-named read-outs stand apart in the source and are kept apart here.

Assays:
rat P2X7 (rP2X7) = target: T1, rat P2X7 (rP2X7) (Rattus norvegicus, UniProt Q64663); test: fura-2 intracellular calcium assay on HEK-293 stable cell line expressing rat P2X7; assay type: cell-based; settings: Rat P2X7 (Table 1), n = 3
T1 construct: expressed in transfected cells
T1 sequence (Q64663 1-595): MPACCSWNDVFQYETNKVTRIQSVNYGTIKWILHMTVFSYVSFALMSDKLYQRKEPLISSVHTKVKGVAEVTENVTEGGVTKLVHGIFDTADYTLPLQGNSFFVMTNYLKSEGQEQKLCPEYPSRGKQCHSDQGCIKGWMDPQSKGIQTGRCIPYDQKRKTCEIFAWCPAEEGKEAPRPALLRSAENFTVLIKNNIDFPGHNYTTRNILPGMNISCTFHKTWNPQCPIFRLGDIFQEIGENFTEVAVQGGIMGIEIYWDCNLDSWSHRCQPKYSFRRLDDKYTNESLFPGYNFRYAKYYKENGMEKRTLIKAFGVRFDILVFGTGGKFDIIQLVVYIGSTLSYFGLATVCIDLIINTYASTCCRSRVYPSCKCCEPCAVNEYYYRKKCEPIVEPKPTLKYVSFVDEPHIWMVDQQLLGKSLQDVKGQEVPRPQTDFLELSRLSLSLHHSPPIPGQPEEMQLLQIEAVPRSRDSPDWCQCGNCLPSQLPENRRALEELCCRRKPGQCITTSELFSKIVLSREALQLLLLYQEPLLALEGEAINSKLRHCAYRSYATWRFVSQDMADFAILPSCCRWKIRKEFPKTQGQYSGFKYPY
Procedure: (§1) Genetically edited HEK-293 cells lacking P2Y2 receptors were used to generate stable cell lines expressing human P2X7 (hP2X7), mouse P2X7 (mP2X7), rat P2X7 (rP2X7), or mutants of the hP2X7 NAM site (F88A, M105A, and F103A). Transfection was performed using lipofectamine 2000 (Fisher Scientific), and cells were subjected to Geneticin (800 μg/mL) selection for 2–3 weeks. This was followed by single cell cloning by limiting dilution in 96-well plates. Individual clones were selected for further study based on ATP-induced TO-PRO-3 uptake on a BD Cytoflex flow cytometer. Cell lines were maintained in DMEM:F12 media supplemented with 10% fetal bovine serum (PanBiotech), penicillin and streptomycin (Fisher Scientific) and kept in a humidified incubator with 5% CO2. Stable P2X7-expressing cells were kept under Geneticin selection at a concentration of 400 μg/mL. Passaging was performed twice weekly using 0.25% Trypsin-EDTA (Fisher Scientific).
(§2) P2X7 responses were measured by monitoring intracellular calcium responses using fura-2AM loaded cells. Cells were plated at 2–2.5 × 10^4 cells/well the day before experiments in 96-well plates (NUNC) coated with 50 μg/mL poly-D-lysine (Merck Millipore). A loading buffer containing 2 μM fura-2AM (HelloBio) and 250 μM sulfinpyrazone (Merck Millipore) in a low divalent buffer (145 mM NaCl, 5 mM KCl, 0.2 mM CaCl2, 10 mM HEPES, 13 mM glucose, pH 7.3) was added to cells for 45 min at 37 °C. After loading, the buffer was removed and replaced with calcium-containing extracellular solution (145 mM NaCl, 5 mM KCl, 2 mM CaCl2, 10 mM HEPES, 13 mM glucose, pH 7.3). Responses were measured using a Flexstation 3 plate reader (Molecular Devices) with dual excitation wavelengths of 340 and 380 nm and single emission wavelength of 510 nm. The sample interval was 3.5 s, and each well was recorded for 180 s. Fura-2 ratios were calculated in Softmax Pro v5.4; zero baseline was applied, and responses were measured as normalized area under the curve (AUC). Dose inhibition curves were plotted using GraphPad Prism v6 nonlinear regression (three parameter fit) and log IC50 values reported.

mouse P2X7 (mP2X7) = target: T2, mouse P2X7 (mP2X7) (Mus musculus, UniProt Q9Z1M0); test: fura-2 intracellular calcium assay on HEK-293 stable cell line expressing mouse P2X7; assay type: cell-based; settings: Mouse P2X7 (Table 1); mean in brackets, n = 3
T2 construct: expressed in transfected cells
T2 sequence (Q9Z1M0 1-595): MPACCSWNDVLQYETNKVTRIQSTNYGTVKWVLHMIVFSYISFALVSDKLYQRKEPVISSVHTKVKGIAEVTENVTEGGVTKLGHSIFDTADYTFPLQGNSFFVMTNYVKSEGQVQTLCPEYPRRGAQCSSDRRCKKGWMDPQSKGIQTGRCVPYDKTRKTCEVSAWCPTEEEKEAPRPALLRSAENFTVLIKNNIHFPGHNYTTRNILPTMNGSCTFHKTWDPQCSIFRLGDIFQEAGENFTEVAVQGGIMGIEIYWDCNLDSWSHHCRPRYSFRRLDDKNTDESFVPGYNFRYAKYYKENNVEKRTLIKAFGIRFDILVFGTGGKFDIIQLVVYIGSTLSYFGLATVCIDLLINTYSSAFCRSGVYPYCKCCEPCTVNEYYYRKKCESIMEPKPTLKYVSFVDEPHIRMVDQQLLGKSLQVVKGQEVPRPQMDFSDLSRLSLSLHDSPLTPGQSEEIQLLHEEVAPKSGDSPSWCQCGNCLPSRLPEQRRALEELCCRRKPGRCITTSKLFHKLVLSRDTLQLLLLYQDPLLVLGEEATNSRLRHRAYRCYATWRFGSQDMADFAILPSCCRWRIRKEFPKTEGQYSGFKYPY
Procedure: as §1
as §2, with “Dose inhibition curves were plotted using GraphPad Prism v6 nonlinear regression (three parameter fit) and log IC50 values reported.” left out

O=C(CC12CC3CC(CC(C3)C1)C2)Nc1cccc2nc(NCCNCCO)ccc12 [AZ10606120]
IC50 (rat P2X7 (rP2X7); log IC50 ± standard error, read-out: Log IC50 (converted)): 52.5 nM
IC50 (rat P2X7 (rP2X7); mean in brackets, read-out: mean IC50): 53.1 nM
IC50 (mouse P2X7 (mP2X7)): 524 nM
